Measurements published in patent publication US10214765B2, “Cell-permeable probes for identification and imaging of sialidases” (Academina Sinica, priority 2012, dated 2019).
Where two headings read alike, the source gives them in different places.

Test system: oseltamivir-sensitive (WSN^274H) and oseltamivir-resistant (WSN^274Y) H1N1 influenza viruses
Format: binding, H1N1 influenza virus

C#CCCC(=O)NC1C(O)C(F)C(F)(C(=O)O)OC1[C@H](O)[C@H](O)CO (stereo partly drawn) [DFSA-5-yne, 5-(Pent-4-ynamido)-2,3,5-trideoxy-3-fluoro-D-erythro-β-L-manno-non-2-ulopyranosylonic fluoride]
labeling of OS^s and OS^r H1N1 influenza viruses (in the absence of OS): labeled | labeling of OS^s and OS^r H1N1 influenza viruses (in the presence of competing OS): only the OS^r virus was detectable
